Where two headings read alike, the source gives them in different places.
Columns and labels:
human mGluR5a receptor = target: T1, human mGluR5a receptor (Homo sapiens, UniProt P41594); assay: Cell-based functional Ca2+ mobilization assay (FDSS), potentiation of glutamate EC20 response; details: for EC50 / pEC50: HEK cells transfected with human mGluR5 (H10H or H12H), in presence of EC20 glutamate; for Emax / Emax (%): maximum % effect in concentration-response curve, as percent of response to maximally effective glutamate
T1 construct: cDNA subcloned into pcDNA3.1(-)
T1 sequence (P41594 21-1180 isoform P41594-2 limits assumed): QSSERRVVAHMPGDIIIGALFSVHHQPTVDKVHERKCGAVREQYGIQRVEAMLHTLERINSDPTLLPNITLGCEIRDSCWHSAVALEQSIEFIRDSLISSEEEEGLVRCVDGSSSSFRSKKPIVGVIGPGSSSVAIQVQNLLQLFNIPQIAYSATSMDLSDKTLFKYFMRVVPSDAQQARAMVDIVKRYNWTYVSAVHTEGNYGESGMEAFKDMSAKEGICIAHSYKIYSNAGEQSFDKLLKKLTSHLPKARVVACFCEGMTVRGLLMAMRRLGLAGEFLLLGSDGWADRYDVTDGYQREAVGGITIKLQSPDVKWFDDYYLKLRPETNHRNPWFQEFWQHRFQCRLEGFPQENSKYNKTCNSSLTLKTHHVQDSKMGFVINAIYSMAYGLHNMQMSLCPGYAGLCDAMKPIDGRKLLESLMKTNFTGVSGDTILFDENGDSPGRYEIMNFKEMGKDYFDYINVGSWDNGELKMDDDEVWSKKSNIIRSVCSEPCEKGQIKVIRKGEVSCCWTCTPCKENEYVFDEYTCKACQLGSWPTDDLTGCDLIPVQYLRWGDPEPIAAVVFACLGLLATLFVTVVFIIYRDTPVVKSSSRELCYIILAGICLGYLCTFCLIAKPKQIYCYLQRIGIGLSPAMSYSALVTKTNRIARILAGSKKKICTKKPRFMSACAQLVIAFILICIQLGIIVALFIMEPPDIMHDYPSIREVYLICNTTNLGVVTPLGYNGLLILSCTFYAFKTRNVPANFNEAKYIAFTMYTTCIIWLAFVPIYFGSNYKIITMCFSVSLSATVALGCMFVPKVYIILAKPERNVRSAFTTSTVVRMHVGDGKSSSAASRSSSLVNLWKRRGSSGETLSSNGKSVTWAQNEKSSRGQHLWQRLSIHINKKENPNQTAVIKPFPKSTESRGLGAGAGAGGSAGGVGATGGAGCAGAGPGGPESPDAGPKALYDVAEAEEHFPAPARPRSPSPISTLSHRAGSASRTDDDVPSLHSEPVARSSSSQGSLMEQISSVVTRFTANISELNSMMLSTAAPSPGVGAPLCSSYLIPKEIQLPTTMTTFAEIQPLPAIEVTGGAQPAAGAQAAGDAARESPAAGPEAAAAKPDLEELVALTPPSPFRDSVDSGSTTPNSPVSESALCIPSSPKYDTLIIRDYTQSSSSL
In short: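 HEK293A cells stably expressing human mGluR5a (H10H or H12H clones), plated overnight in glutamate-glutamine-free medium, loaded with Ca2+-sensitive dye (e.g. Fluo-4) and read on FDSS.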

| Compound | EC50 (human mGluR5a receptor; read-out: EC50) [nM] | Emax (human mGluR5a receptor) [%] | melting point [°C] | EC50 (human mGluR5a receptor; EC50 (nM)) [nM] | EC50 (human mGluR5a receptor; read-out: pEC50 (converted)) [nM] | pEC50 (human mGluR5a receptor) | Emax (%) (human mGluR5a receptor) |
| --- | --- | --- | --- | --- | --- | --- | --- |
| CC1CN(c2ccc(F)cc2)C(=O)c2cc(COc3ccccc3)nn21 (racemic) [Example 19] | 71 | 68 | 99.5 |  |  |  |  |
| CC1CN(c2ccc(F)cc2)C(=O)c2cc(COc3ccc(F)cc3)nn21 (racemic) [Example 234] | 141 | 69 | 164.2 |  |  |  |  |
| CC1CN(c2cccc(F)c2)C(=O)c2cc(COc3ccc(F)cc3)nn21 (racemic) [Example 235] | 170 | 64 | 128.1 |  |  |  |  |
| Cc1nc(N2CC(C)n3nc(COc4ccc(F)cc4)cc3C2=O)ccc1F (racemic) [Example 236] | 151 | 64 | 123.5 |  |  |  |  |
| O=C1c2cc(COc3ccccc3)nn2CCN1c1ccc(F)c(F)c1 [Example 7] | 98 | 80 | > 300 |  |  |  |  |
| O=C1c2cc(COc3ccccc3)nn2CCN1c1cccc(F)c1 [Example 8] |  | 81 | 155 | 132 |  |  |  |
| O=C1c2cc(COc3ccccc3)nn2CCN1c1ccccc1F [Example 9] |  | 82 | 154.7 | 162 |  |  |  |
| Cc1cccc(N2CCn3nc(COc4ccccc4)cc3C2=O)n1 [Example 10] | 162 | 84 | 129.7 |  |  |  |  |
| O=C1c2cc(COc3ccccc3)nn2CCN1c1ccncc1 [Example 14] | 1480 | 72 | 271.3 |  |  |  |  |
| Cc1ccnc(N2CCn3nc(COc4ccccc4)cc3C2=O)c1 [Example 17] | 490 | 72 | 131.3 |  |  |  |  |
| Cc1cncc(N2CCn3nc(COc4ccccc4)cc3C2=O)c1 [Example 22] | 1200 | 74 | 155.3 |  |  |  |  |
| Cc1ccc(N2CCn3nc(COc4ccccc4)cc3C2=O)cn1 [Example 23] | 1200 | 81 | > 300 |  |  |  |  |
| O=C1c2cc(COc3ccccc3)nn2CCN1CC(F)(F)F [Example 24] | 2820 | 78 | 132.1 |  | 1660 |  |  |
| CC(C)N1CCn2nc(COc3ccccc3)cc2C1=O [Example 25] | 1860 | 53 | > 300 |  |  |  |  |
| O=C1c2cc(COc3ccccc3)nn2CCN1CC1CCC1 [Example 27] | 92 | 80 | > 300 |  |  |  |  |
| O=C1c2cc(COc3ccccc3)nn2CCN1CC1CC1(F)F (stereo not shown) [Example 28] | 174 | 60 | 180.2 |  |  |  |  |
| O=C1c2cc(COc3ccccc3)nn2CCN1c1cncnc1 [Example 31] | > 10000 | 58 | 240 |  |  |  |  |
| Cc1ncc(N2CCn3nc(COc4ccccc4)cc3C2=O)cn1 [Example 33] | > 10000 | 67 | 283.4 |  |  |  |  |
| COc1ccccc1N1CCn2nc(COc3ccccc3)cc2C1=O [Example 47] | 93 | 65 | 145.8 |  |  |  |  |
| CCOc1cccc(N2CCn3nc(COc4ccccc4)cc3C2=O)c1 [Example 59] | 130 | 57 | 115.8 |  |  |  |  |
| CN(C)c1nc(N2CCn3nc(COc4ccccc4)cc3C2=O)ccc1F [Example 305] | 40 |  |  |  |  | 7.40 | 71 |
| CNc1cccc(OCc2cc3n(n2)CCN(c2ccc(F)cc2)C3=O)n1 [Example 311] | > 30200 |  |  |  |  | <4.52 | 28 |
| CN(C)c1cccc(N2CCn3nc(COc4ccccn4)cc3C2=O)n1 [Example 313] | 178 |  |  |  |  | 6.75 | 74 |
| CN(C)c1ccc(F)c(N2CCn3nc(COc4ccccn4)cc3C2=O)n1 [Example 314] | 204 |  |  |  |  | 6.69 | 70 |
| CN(C)c1cccc(N2CCn3nc(COc4ccc(F)cc4)cc3C2=O)n1 [Example 317] | 42 |  |  |  |  | 7.38 | 66 |

| Compound | EC50 (human mGluR5a receptor; read-out: EC50) [nM] | Emax (human mGluR5a receptor) [%] | melting point [°C] | EC50 (human mGluR5a receptor; EC50 (nM)) [nM] | EC50 (human mGluR5a receptor; read-out: pEC50 (converted)) [nM] | pEC50 (human mGluR5a receptor) | Emax (%) (human mGluR5a receptor) |
| --- | --- | --- | --- | --- | --- | --- | --- |
| Cn1cc(N2CCn3nc(COc4ccccc4)cc3C2=O)cn1 [Example 320] | > 10000 |  |  |  |  | <5.00 | 61 |
| Cc1[nH]ncc1N1CCn2nc(COc3ccccc3)cc2C1=O [Example 322] | > 10000 |  |  |  |  | <5.00 | 44 |
| O=C1c2cc(COc3ccccc3)nn2CCN1c1nc2ccccc2o1 [Example 324] | 58 |  |  |  |  | 7.24 | 71 |
| COc1cc(N2CCn3nc(COc4ccccc4)cc3C2=O)ncn1 [Example 351] | 260 |  |  |  |  | 6.59 | 66 |
| Cn1cncc1N1CCn2nc(COc3ccccc3)cc2C1=O [Example 352] | > 10000 |  |  |  |  | <5.00 | 55 |
| O=C1c2cc(COc3ccccc3)nn2CCN1c1cccc(=O)[nH]1 [Example 359] | 420 | 64 |  |  |  |  |  |
| O=C1c2cc(COc3ccccc3)nn2CCN1c1ccc2cccnc2c1 [Example 360] | 190 | 66 |  |  |  |  |  |
| O=C1c2cc(COc3ccccc3)nn2CCN1c1ccc2scnc2c1 [Example 361] | 72 |  |  |  |  | 7.14 | 66 |
| O=C1c2cc(COc3ccccc3)nn2CCN1c1cnc2ccccc2c1 [Example 362] | 54 | 71 |  |  |  |  |  |
| O=C1c2cc(COc3ccccc3)nn2CCN1c1ccc2ncncc2c1 [Example 363] | 1300 | 65 |  |  |  |  |  |
| O=C1c2cc(COc3ccccc3)nn2CCN1c1ccc2nccc(Cl)c2c1 [Example 364] | 46 |  |  |  |  | 7.34 | 75 |
| O=C1c2cc(COc3ccccc3)nn2CCN1c1cccc(Cl)n1 [Example 365] | 40 |  |  |  |  | 7.40 | 73 |
| Cn1cc2ccc(N3CCn4nc(COc5ccccc5)cc4C3=O)cc2n1 [Example 366] | 850 |  |  |  |  | 6.07 | 62 |
| Cc1nc2cc(N3CCn4nc(COc5ccccc5)cc4C3=O)ccc2s1 [Example 367] | 88 |  |  |  |  | 7.06 | 60 |
| O=C1c2cc(COc3ccccc3)nn2CCN1c1ccc(F)c2ccccc12 [Example 368] |  | 69 |  |  | 12.9 |  |  |
| Cc1ccc2ccc(N3CCn4nc(COc5ccccc5)cc4C3=O)cc2n1 [Example 369] | 230 |  |  |  |  | 6.64 | 68 |
| O=C1c2cc(COc3ccccc3)nn2CCN1c1cnc2cccnn12 [Example 370] | 1100 | 68 |  |  |  |  |  |
| O=C1c2cc(COc3ccccc3)nn2CCN1c1ccc2nsnc2c1 [Example 371] | 32 |  |  |  |  | 7.49 | 68 |
| O=C1c2cc(COc3ccccc3)nn2CCN1c1cc(F)cc2cccnc12 [Example 372] | 130 | 67 |  |  |  |  |  |
| O=C1c2cc(COc3ccccc3)nn2CCN1c1ccc2nccnc2n1 [Example 373] | > 10000 | 55 |  |  |  |  |  |
| O=C1c2cc(COc3ccccc3)nn2CCN1c1cnc2cnccn12 [Example 374] | 3400 | 72 |  |  |  |  |  |
| O=C1c2cc(COc3ccccc3)nn2CCN1c1ccc2nonc2c1 [Example 375] | 72 |  |  |  |  | 7.14 | 70 |
| O=C1c2cc(COc3ccccc3O)nn2CCN1c1ccc(F)cn1 [Example 377] | > 10000 |  |  |  |  | <5.00 | 71 |
| O=c1[nH]ccn2nc(COc3ccccc3)cc12 [Example 378] | > 30200 |  |  |  |  | <4.52 | 29 |

From patent publication US8592422B2, “Bicyclic triazole and pyrazole lactams as allosteric modulators of mGluR5 receptors” (Vanderbilt University, priority 2010, dated 2013)
